Where two headings read alike, the source gives them in different places.
Tested on: Human retinal pigmented epithelium cells (RPE)
Assay: NO bioassay: DAF-FM DA fluorescence as indicator of NO in RPE cells
Type: cell-based
[1] = RPE cells in PBS supplemented with Ca2+ and Mg2+
[2] = RPE cells without calcium (calcium-free PBS)
[3] = Table 3, DAF-FM DA NO fluorescence change vs control, WT RPE cells in PBS with 5 mM Ca2+ + Mg2+ + 8 mM pyruvate, agent 300 ppm unless stated

Compound	NO level (DAF-FM DA fluorescence) relative to control, in words	NO level (DAF-FM DA fluorescence) relative to control, in words [1]	NO level (DAF-FM DA fluorescence) relative to control, in words [2]	[(E − C)/C] × 100 (N = 3, A.U. %) [3] [%]	also measured
CC(=O)OCOC(=O)CN(CC(=O)OCOC(C)=O)c1ccccc1OCCOc1ccccc1N(CC(=O)OCOC(C)=O)CC(=O)OCOC(C)=O [BAPTA, 1,2-Bis(2-amino-phenoxy)ethane-N,N,N′,N′-tetraacetic acid tetrakis (acetoxymethyl ester)]	lower	–	–	–	[(E − C)/C] × 100 (N = 6, A.U. %): 11%
[Ca+2].[Cl-].[Cl-] [Ca^2+, calcium chloride]	slight decrease in NO	–	–	–	–
[Ce+3] [Ce^3+]	–	dropped by varying degrees	could not be restored	−96	–
O=C1c2c(O)cccc2Cc2cccc(O)c21 [Dithranol]	–	–	–	−69	–
[Fe+3] [Fe^3+]	–	dropped by varying degrees	could not be restored	−93	–
O=NO [Nitrite, sodium nitrite]	increased relative to control	–	–	–	[(E − C)/C] × 100 (N = 3, A.U. %): 2%
[Pr+3] [Pr^3+]	–	dropped by varying degrees	could not be restored	−91	decrease of NO (low DAF-FM DA fluorescence), modal (addition of agent to RPE cells, Table 3): 91%

Source: US10670609B2, “Ytterbium as a surrogate cation to measure calcium flux” (Government of the United States, as represented by the …, priority 2017, dated 2020)
